# Experimental data reported in PubChem BioAssay (NCI).
#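 Assay format: 96-well plates, 48-hour exposure. At the TGI there is no net growth.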
# Legend:
# Test in all cases: NCI anticancer screen, dose series, 48 h
# [1] = test system: LXFL 529 NSCLC
# [2] = test system: M14 melanoma
# [3] = test system: SK-MEL-5 melanoma
# [4] = test system: SK-OV-3 ovarian
# [5] = test system: NCI-H226 lung
# [6] = test system: HT29 colon
# [7] = test system: A549 NSCLC
# [8] = test system: RPMI-8226 leukemia
# [9] = test system: SF-295 CNS
# [10] = test system: SN12C renal
# [11] = test system: HOP-62 NSCLC
# [12] = test system: TK-10 renal
# [13] = test system: HOP-92 NSCLC
# [14] = test system: 786-0 renal
# [15] = test system: M19-MEL melanoma
# [16] = test system: CAKI-1 renal
# [17] = test system: OVCAR-5 ovarian
# [18] = test system: COLO 205 colon
# [19] = test system: MALME-3M melanoma
# [20] = test system: SNB-78 CNS
# [21] = test system: NCI-H460 lung
# [22] = test system: SNB-19 CNS
# [23] = test system: SK-MEL-2 melanoma
# [24] = test system: DMS 114 small cell lung
# [25] = test system: SF-268 CNS
# [26] = test system: HL-60(TB) leukemia
# [27] = test system: NCI-H522 lung
# [28] = test system: SF-539 CNS
# [29] = test system: OVCAR-3 ovarian
# [30] = test system: ACHN renal
# [31] = test system: DLD-1 colon
# [32] = test system: LOX IMVI melanoma
# [33] = test system: HOP-18 NSCLC
# [34] = test system: KM12 colon
# [35] = test system: SK-MEL-28 melanoma
# [36] = test system: HCT-15 colon
# [37] = test system: HCT-116 colon
# [38] = test system: IGROV1 ovarian
# [39] = test system: UO-31 renal
# [40] = test system: A498 renal
# [41] = test system: MOLT-4 leukemia
# [42] = test system: KM20L2 colon
# [43] = test system: SNB-75 CNS
# [44] = test system: CCRF-CEM leukemia
# [45] = test system: SW-620 colon
# [46] = test system: UACC-62 melanoma
# [47] = test system: SR leukemia
# [48] = test system: OVCAR-4 ovarian
# [49] = test system: U251 CNS
# [50] = test system: UACC-257 melanoma
# [51] = test system: K-562 leukemia
# [52] = test system: NCI-H23 lung
# [53] = test system: OVCAR-8 ovarian
# [54] = test system: HCC-2998 colon
# [55] = test system: EKVX NSCLC
# [56] = test system: DMS 273 small cell lung
# [57] = test system: RXF 393 renal
structure (smiles),measurement,setting,value
O=C(Nc1c(O)[nH]c(=S)[nH]c1=O)c1ccccc1,TGI,[1],> 100 µM
same,TGI,[2],> 100 µM
same,TGI,[3],> 100 µM
same,TGI,[4],> 100 µM
same,TGI,[5],> 100 µM
same,TGI,[6],> 100 µM
same,TGI,[7],> 100 µM
same,TGI,[8],> 100 µM
same,TGI,[9],> 100 µM
same,TGI,[10],> 100 µM
same,TGI,[11],> 100 µM
same,TGI,[12],> 100 µM
same,TGI,[13],> 100 µM
same,TGI,[14],> 100 µM
same,TGI,[15],> 100 µM
same,TGI,[16],> 100 µM
same,TGI,[17],> 100 µM
same,TGI,[18],> 100 µM
same,TGI,[19],> 100 µM
same,TGI,[20],> 100 µM
same,TGI,[21],> 100 µM
same,TGI,[22],> 100 µM
same,TGI,[23],> 100 µM
same,TGI,[24],> 100 µM
same,TGI,[25],> 100 µM
same,TGI,[26],> 100 µM
same,TGI,[27],> 100 µM
same,TGI,[28],> 100 µM
same,TGI,[29],> 100 µM
same,TGI,[30],> 100 µM
same,TGI,[31],> 100 µM
same,TGI,[32],> 100 µM
same,TGI,[33],> 100 µM
same,TGI,[34],> 100 µM
same,TGI,[35],> 100 µM
same,TGI,[36],> 100 µM
same,TGI,[37],> 100 µM
same,TGI,[38],> 100 µM
same,TGI,[39],> 100 µM
same,TGI,[40],> 100 µM
same,TGI,[41],> 100 µM
same,TGI,[42],> 100 µM
same,TGI,[43],> 100 µM
same,TGI,[44],> 100 µM
same,TGI,[45],> 100 µM
same,TGI,[46],> 100 µM
same,TGI,[47],> 100 µM
same,TGI,[48],> 100 µM
same,TGI,[49],> 100 µM
same,TGI,[50],> 100 µM
same,TGI,[51],> 100 µM
same,TGI,[52],> 100 µM
same,TGI,[53],> 100 µM
O=S1C(=c2ccc(=C3Sc4ccccc4S3)cc2)Sc2ccccc21 (centres undefined),TGI,[1],> 100 µM
same,TGI,[2],29 µM
same,TGI,[3],33.3 µM
same,TGI,[54],30.3 µM
same,TGI,[4],37 µM
same,TGI,[5],34 µM
same,TGI,[6],49.2 µM
same,TGI,[7],35.5 µM
same,TGI,[55],34.2 µM
same,TGI,[8],> 100 µM
same,TGI,[9],31.2 µM
same,TGI,[10],29.3 µM
same,TGI,[11],31.6 µM
same,TGI,[12],> 100 µM
same,TGI,[13],> 100 µM
same,TGI,[14],30.8 µM
same,TGI,[15],38.3 µM
same,TGI,[16],> 91.1 µM
same,TGI,[17],32.4 µM
same,TGI,[18],> 100 µM
same,TGI,[19],> 100 µM
same,TGI,[20],> 100 µM
same,TGI,[21],> 54.8 µM
same,TGI,[56],37.1 µM
same,TGI,[22],30.7 µM
same,TGI,[23],50.6 µM
same,TGI,[24],> 56.4 µM
same,TGI,[25],37.3 µM
same,TGI,[26],> 100 µM
same,TGI,[27],> 100 µM
same,TGI,[28],30.5 µM
same,TGI,[29],> 100 µM
same,TGI,[30],37.6 µM
same,TGI,[31],> 93.3 µM
same,TGI,[32],32.2 µM
same,TGI,[33],> 100 µM
same,TGI,[34],31.4 µM
same,TGI,[35],7 µM
same,TGI,[36],28.9 µM
same,TGI,[37],> 56.6 µM
same,TGI,[38],> 95.5 µM
same,TGI,[39],35.2 µM
same,TGI,[40],30.2 µM
same,TGI,[41],> 100 µM
same,TGI,[42],31.9 µM
same,TGI,[43],35.8 µM
same,TGI,[44],> 100 µM
same,TGI,[57],> 57.7 µM
same,TGI,[45],> 100 µM
same,TGI,[46],35.2 µM
same,TGI,[47],> 100 µM
same,TGI,[48],> 100 µM
same,TGI,[49],28.2 µM
same,TGI,[50],> 100 µM
same,TGI,[51],> 100 µM
same,TGI,[52],30.2 µM
same,TGI,[53],34.4 µM
CCCC/C=C/C=C/C=C/CCCCCCCC(=O)OCC(COC(=O)CCCCCCC/C=C/C1C=CC(CCCC)C(C(=O)O)C1C(=O)O)OC(=O)CCCCCCC/C=C/C=C/C=C/CCCC (centres undefined) (tested in a mixture with another compound),TGI,[1],32.8 µM
same,TGI,[2],29.7 µM
same,TGI,[3],31.1 µM
same,TGI,[54],40.7 µM
same,TGI,[4],44.6 µM
same,TGI,[5],35.8 µM
same,TGI,[6],35.3 µM
same,TGI,[7],37.1 µM
same,TGI,[55],43.4 µM
same,TGI,[8],15 µM
same,TGI,[9],35.8 µM
same,TGI,[10],44.3 µM
same,TGI,[11],38.6 µM
same,TGI,[12],37.7 µM
same,TGI,[13],48.1 µM
same,TGI,[14],31.7 µM
same,TGI,[15],36.9 µM
same,TGI,[16],76.1 µM
same,TGI,[17],43.1 µM
same,TGI,[18],29.3 µM
same,TGI,[19],35.8 µM
same,TGI,[21],> 100 µM
same,TGI,[56],29.9 µM
same,TGI,[22],46.1 µM
same,TGI,[23],29.5 µM
same,TGI,[24],23.1 µM
same,TGI,[25],36.1 µM
same,TGI,[26],41.1 µM
same,TGI,[28],39.1 µM
same,TGI,[29],38.3 µM
same,TGI,[30],33.2 µM
same,TGI,[31],40 µM
same,TGI,[32],27.5 µM
same,TGI,[33],47.8 µM
same,TGI,[34],34.6 µM
same,TGI,[35],33.3 µM
same,TGI,[36],30.8 µM
same,TGI,[37],30.7 µM
same,TGI,[38],37.8 µM
same,TGI,[39],34.7 µM
same,TGI,[40],34.4 µM
same,TGI,[41],47.2 µM
same,TGI,[42],48.1 µM
same,TGI,[43],36.7 µM
same,TGI,[44],34.2 µM
same,TGI,[45],18 µM
same,TGI,[46],29.1 µM
same,TGI,[48],34.7 µM
same,TGI,[50],34.9 µM
same,TGI,[51],44.2 µM
same,TGI,[52],40.3 µM
same,TGI,[53],44.5 µM
Cc1nc(-c2nc(C)c(C(=O)NNC(=O)C[n+]3ccccc3)s2)sc1C(=O)NNC(=O)C[n+]1ccccc1,TGI,[1],> 100 µM
same,TGI,[2],> 100 µM
same,TGI,[3],> 100 µM
same,TGI,[54],> 100 µM
same,TGI,[4],> 100 µM
same,TGI,[5],> 100 µM
same,TGI,[6],> 100 µM
same,TGI,[7],> 100 µM
same,TGI,[55],> 100 µM
same,TGI,[8],> 100 µM
same,TGI,[9],> 100 µM
same,TGI,[10],> 100 µM
same,TGI,[11],> 100 µM
same,TGI,[12],> 100 µM
same,TGI,[13],> 100 µM
same,TGI,[14],> 100 µM
same,TGI,[15],> 100 µM
same,TGI,[16],85.1 µM
same,TGI,[17],> 100 µM
same,TGI,[18],> 100 µM
same,TGI,[19],> 100 µM
same,TGI,[20],> 100 µM
same,TGI,[21],> 100 µM
same,TGI,[22],> 100 µM
same,TGI,[23],> 100 µM
same,TGI,[24],> 100 µM
same,TGI,[25],> 100 µM
same,TGI,[26],> 100 µM
same,TGI,[28],> 100 µM
same,TGI,[29],> 100 µM
same,TGI,[30],> 100 µM
same,TGI,[31],> 100 µM
same,TGI,[32],> 100 µM
same,TGI,[34],> 100 µM
same,TGI,[35],> 100 µM
same,TGI,[36],> 100 µM
same,TGI,[37],> 100 µM
same,TGI,[38],> 100 µM
same,TGI,[39],80.5 µM
same,TGI,[40],> 100 µM
same,TGI,[41],> 100 µM
same,TGI,[42],> 100 µM
same,TGI,[43],84.3 µM
same,TGI,[44],> 100 µM
same,TGI,[57],> 100 µM
same,TGI,[45],> 100 µM
same,TGI,[46],> 100 µM
same,TGI,[49],> 100 µM
same,TGI,[50],> 100 µM
same,TGI,[51],> 100 µM
same,TGI,[52],> 100 µM
same,TGI,[53],> 100 µM
